Reference: patent US20090270435A1 (priority 2006, published 2009)
Counter-ions that a name gives are not always drawn.

Biological target: T1, ACC1 from rat liver (Rattus norvegicus, UniProt P11497)
T1 construct: The livers (for ACC1 preparation) or skeletal muscle tissue (for ACC2 preparation) are removed; from tissue; host or cells: liver of male CD rats (fasted, then fed a high sucrose diet)
Assay: Direct inhibition of ACC1 activity (14C-bicarbonate incorporation)
Type: biochemical
Conditions: ACC1 from rat liver
Procedure, shortened: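 ACC1 partially purified from livers of fasted/sucrose-refed male rats by PEG and ammonium sulfate fractionation, then preincubated 30 min at 37°C with 10 mM citrate and 1.0 mM MgCl2. Reaction ran 7 min at 37°C, stopped with HCl; acid-stable radioactivity counted by scintillation; HCl-first tubes served as blanks.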

`Cn1ccc2ccc(C(=O)N3CCC4(CC3)CC(=O)c3cc(Cl)ccc3O4)cc21` [Ex. L5, 6-chloro-1′-[(1-methyl-1H-indol-6-yl)carbonyl]spiro[chromene-2,4′-piperidin]-4(3H)-one] and `Cc1[nH]c2ccc(C(=O)N3CCC4(CC3)CC(=O)c3cc(Cl)ccc3O4)cc2c1C` [Ex. L12, 6-chloro-1′-[(2,3-dimethyl-1H-indol-5-yl)carbonyl]spiro[chromene-2,4′-piperidin]-4(3H)-one] cannot be ordered by IC50: < 1000 nM for the first, < 1000 nM for the second.

First: COc1cccc2c1C(=O)CC1(CCN(C(=O)c3ccc4c(Cl)c[nH]c4c3)CC1)O2 [Ex. L6, 1′-[(3-chloro-1H-indol-6-yl)carbonyl]-5-methoxyspiro[chromene-2,4′-piperidin]-4(3H)-one]
Second: COc1cccc2c1C(=O)CC1(CCN(C(=O)c3ccc4[nH]cc(Cl)c4c3)CC1)O2 [Ex. L10, 1′-[(3-chloro-1H-indol-5-yl)carbonyl]-5-methoxyspiro[chromene-2,4′-piperidin]-4(3H)-one]
The IC50 of the first is 2.1-fold lower: 47.3 nM for the first, 101 nM for the second. The first is the more potent here.

First: O=C1CC2(CCN(C(=O)c3ccc4c(Cl)c[nH]c4c3)CC2)Oc2ccc(Cl)cc21 [Ex. L7, 6-chloro-1′-[(3-chloro-1H-indol-6-yl)carbonyl]spiro[chromene-2,4′-piperidin]-4(3H)-one]
Second: Cc1cc2c(cc1C)C(=O)CC1(CCN(C(=O)c3ccc4[nH]cc(Cl)c4c3)CC1)O2 [Ex. L9, 1′-[(3-chloro-1H-indol-5-yl)carbonyl]-6,7-dimethylspiro[chromene-2,4′-piperidin]-4(3H)-one]
The IC50 of the first is 4.2-fold higher: 183 nM for the first, 43.8 nM for the second. The second is the more potent here.

First: Cc1cc2c(cc1Cl)C(=O)CC1(CCN(C(=O)c3ccc4[nH]ccc4c3)CC1)O2 [Ex. L8, 6-chloro-1′-(1H-indol-5-ylcarbonyl)-7-methylspiro[chromene-2,4′-piperidin]-4(3H)-one]
Second: Cc1cc2c(cc1Cl)C(=O)CC1(CCN(C(=O)c3cccc4[nH]cnc34)CC1)O2 [Ex. L18, 1′-(1H-benzimidazol-4-ylcarbonyl)-6-chloro-7-methylspiro[chromene-2,4′-piperidin]-4(3H)-one]
The IC50 of the first is 4.4-fold lower: 456 nM for the first, 2010 nM for the second. The first is the more potent here.

Going from `COc1cccc2c1C(=O)CC1(CCN(C(=O)c3ccc4[nH]c(C)c(C)c4c3)CC1)O2` [Ex. L11, 1′-[(2,3-dimethyl-1H-indol-5-yl)carbonyl]-5-methoxyspiro[chromene-2,4′-piperidin]-4(3H)-one] to `COc1cccc2c1C(=O)CC1(CCN(C(=O)c3ccc4[nH]c5c(c4c3)CCCC5)CC1)O2` [Ex. L16, 5-methoxy-1′-(2,3,4,9-tetrahydro-1H-carbazol-6-ylcarbonyl)spiro[chromene-2,4′-piperidin]-4(3H)-one], the IC50 falls from 113 nM to 65 nM (1.7-fold).

`Cc1cc2c(cc1C)C(=O)CC1(CCN(C(=O)c3ccc4c(c3)CC(=O)N4)CC1)O2` [Ex. L13, 6,7-dimethyl-1′-[(2-oxo-2,3-dihydro-1H-indol-5-yl)carbonyl]spiro[chromene-2,4′-piperidin]-4(3H)-one] and `Cc1nc2c(C(=O)N3CCC4(CC3)CC(=O)c3cc(C)c(C)cc3O4)cccc2[nH]1` [Ex. L19, 6,7-dimethyl-1′-[(2-methyl-1H-benzimidazol-4-yl)carbonyl]spiro[chromene-2,4′-piperidin]-4(3H)-one trifluoroacetic acid salt] cannot be ordered by IC50: < 3000 nM for the first, < 3000 nM for the second.

Going from `Cc1cc2c(cc1C)C(=O)CC1(CCN(C(=O)c3cccc4c3ccn4C)CC1)O2` [Ex. L15, 6,7-dimethyl-1′-[(1-methyl-1H-indol-4-yl)carbonyl]spiro[chromene-2,4′-piperidin]-4(3H)-one] to `Cc1cc2c(cc1C)C(=O)CC1(CCN(C(=O)c3cccc4c3ncn4C(C)C)CC1)O2` [Ex. L21, 1′-[(1-isopropyl-1H-benzimidazol-4-yl)carbonyl]-6,7-dimethylspiro[chromene-2,4′-piperidin]-4(3H)-one trifluoroacetic acid salt], the IC50 rises from 415 nM to 670 nM (1.6-fold).

Work on `Cc1cc2c(cc1C)C(=O)CC1(CCN(C(=O)c3cccc4[nH]cnc34)CC1)O2` [Ex. L17, 1′-(1H-benzimidazol-4-ylcarbonyl)-6,7-dimethylspiro[chromene-2,4′-piperidin]-4(3H)-one trifluoroacetic acid salt] yielded an IC50 of 885 nM.
